# Data published in patent US11453671B2, “Pyrazolopyrimidine inhibitors of JAK kinases and uses thereof” (Genentech, Inc., priority 2020, dated 2022).
# Where two headings read alike, the source gives them in different places.
# Key:
# [1] = target: T1, recombinant human JAK1 kinase domain protein (Residues 854-1154) (Homo sapiens, UniProt P23458); assay: JAK1 biochemical assay (microfluidic mobility shift, peptide phosphorylation); settings: 25 μM ATP, 1 nM total JAK1; read-out: Enzyme JAK1 Ki
# T1 construct: human JAK1 kinase domain protein (Residues 854-1154); purchased Proteros Biostructures GmbH (Martinsried, Germany); host or cells: insect cells
# Text: JAK1 and JAK2 Biochemical Assays
# [2] = test system: JAK1: IL-13-stimulated STAT6 phosphorylation in BEAS-2B cells; assay: P-STAT6 BEAS-2B+IL-13 Cell Assay; type: cell-based, human; settings: IL-13 stimulation, read-out: Cellular JAK1 PSTAT6 BEAS2B + IL13 IC50
# Procedure, shortened: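 BEAS-2B cells in BEGM preincubated 1 h at 37 °C with 10-point, 1:2 compound dilutions, then stimulated 15 min with IL-13 (250 ng/mL stock). Lysate pSTAT6 (Tyr641) captured on total-STAT6 antibody and read by MSD electrochemiluminescence; IC50 from four-parameter logistic fit.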
# [3] = Mouse lung tissue binding (equilibrium dialysis, RED); type: in vitro ADME; settings: for Mouse LTB %: mouse lung tissue binding, % bound (Table 3); for Lung tissue binding, %: Table 5, sulfone-sulfide analog pairs
# Description: Mouse lung tissue binding. A high bound fraction or percentage of JAK1/JAK2 inhibitors to lung tissue may be undesirable since it can reduce the amount of free drug available to inhibit JAK1 or JAK2.
# (a) Tissue binding experiments were performed in triplicate (n=3) using a Single-Use RED Plate by following the standard protocol. Initially, individual drugs were spiked to tissue homogenates (pH 7.4) to achieve a final concentration of 1 μM, and then 300 μL of drug-tissue homogenate mixtures were transferred to the donor wells of the RED plate which was pre-loaded with 500 μL phosphate buffer saline (133 mM) on the receiver wells. The RED plate was sealed with a gas permeable membrane and placed in a shaking incubator (450 rpm, VWR Symphony™) for 6 hr at 37° C. with 5% CO2. At the end of incubation, aliquots of 30 μL samples were taken out of the RED device and matrix equalized with an equal volume of tissue homogenates or buffer, and resulting samples were then immediately quenched with ice cold acetonitrile (sample:acetonitrile 1:4) containing either propranolol or labetalol as an internal standard. After shaking for 15 min at 500 rpm on a Thermo Scientific Compact Digital MicroPlate Shaker, all samples were then subjected to centrifugation at 3700 rpm for 15 min (Beckman Coulter Allegra X 12R) to remove plasma protein. Subsequently, supernatants were collected and then diluted with an equal volume of water prior to LC-MS/MS analysis.
# (b) In an alternate procedure, the extent of lung tissue binding of test compound to mouse lung homogenate may also be determined by equilibrium dialysis using Pierce RED (rapid equilibrium dialysis) devices (Fisher Scientific 89811 & 89809). A 10 mM solution of compound in DMSO was prepared and diluted to 1 mM with DMSO. An aliquot of this 1 mM (4 μL) was added into lung homogenate (dilution factor of 1:9, lung tissue:potassium phosphate buffer (0.05 M, pH 7.4)) to give a final compound incubation concentration of 5 μM with solvent accounting for 0.5% (v/v) of the final incubation volume.
# For each assay, the percentage lung tissue bound was determined in triplicate. Lung homogenate (200 μL) was loaded into one side of a RED device insert, in triplicate, and 350 μL of potassium phosphate buffer was loaded into the other side. The RED devices were sealed and incubated for 4 hours at ca. 37° C. on an orbital shaker (˜150 rpm).
# Following incubation, an aliquot of lung homogenate (8 μL) and an aliquot of dialysate (72 μL) were matrix matched (lung homogenate with 72 μL phosphate buffer, dialysate with 8 μL lung homogenate) ahead of analysis. Protein was precipitated from the samples with the addition of 160 μL of acetonitrile containing internal standard. The same matrix matching and protein precipitation procedure was performed on lung homogenate aliquots sampled at the start of the experiment (t=0 min samples), for the assessment of the mass balance. The quenched samples were centrifuged (4000 rpm, 30 min, 4° C.) and the resultant supernatant diluted with water (3:1 (v/v), supernatant: water) and the samples analysed for parent compound by liquid chromatography mass spectrometry assay.
# The unbound fraction (fu) in lung homogenate was determined from the ratio of the dialysate to homogenate peak area, corrected to take into account the lung homogenate dilution (D) to enable an estimate of whole lung tissue binding using the following equations: Undiluted fu=(1/D)/[((1/Apparent fu)−1)+(1/D)] Corrected fraction bound (%)=(1-undiluted fu)*100
# T1 sequence (P23458 854-1154): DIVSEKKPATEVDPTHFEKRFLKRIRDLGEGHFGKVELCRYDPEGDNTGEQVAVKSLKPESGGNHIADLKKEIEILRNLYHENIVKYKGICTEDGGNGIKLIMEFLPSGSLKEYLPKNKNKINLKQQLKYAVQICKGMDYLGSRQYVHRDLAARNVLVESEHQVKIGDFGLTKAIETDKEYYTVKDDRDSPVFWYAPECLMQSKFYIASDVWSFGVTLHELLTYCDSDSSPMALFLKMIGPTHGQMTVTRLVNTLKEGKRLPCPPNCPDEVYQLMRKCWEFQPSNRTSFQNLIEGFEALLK
Ki [1] [nM],Mouse LTB % [3] [%],"Lung tissue binding, % [3] [%]",Compound,"IC50 ([2]; Homo sapiens, BEAS-2B) [nM]",IC50 [2] [nM]
0.53,–,–,"C[C@H](Cn1cc(S(=O)(=O)c2ccc(OC(F)F)c(-c3nn(C)cc3NC(=O)c3cnn4cccnc34)c2)cn1)N(C)C [Example 59, N-[3-[2-(difluoromethoxy)-5-[1-[(2R)-2-(dimethylamino)propyl]pyrazol-4-yl]sulfonyl-phenyl]-1-methyl-pyrazol-4-yl]pyrazolo[1,5-a]pyrimidine-3-carboxamide]",32,–
0.69,90.1,–,"Cn1cc(NC(=O)c2cnn3cccnc23)c(-c2cc(S(=O)(=O)C3CCCNC3)ccc2OC(F)F)n1 (single isomer, unassigned) [Example 37, N-[3-[2-(difluoromethoxy)-5-(3-piperidylsulfonyl)phenyl]-1-methyl-pyrazol-4-yl]pyrazolo[1,5-a]pyrimidine-3-carboxamide]",46,–
0.16,86.9,–,"CNS(=O)(=O)c1ccc(OC(F)F)c(-c2nn(C)cc2NC(=O)c2cnn3cccnc23)c1 [Example 26, N-[3-[2-(difluoromethoxy)-5-(methylsulfamoyl)phenyl]-1-methyl-pyrazol-4-yl]pyrazolo[1,5-a]pyrimidine-3-carboxamide]",11,–
0.24,70.8,70.8,"CS(=O)(=O)c1ccc(OC(F)F)c(-c2nn(CC#N)cc2NC(=O)c2cnn3cccnc23)c1 [Example 28, N-[1-(cyanomethyl)-3-[2-(difluoromethoxy)-5-methylsulfonyl-phenyl]pyrazol-4-yl]pyrazolo[1,5-a]pyrimidine-3-carboxamide]",9.5,–
0.52,86.5,–,"Cn1cc(NC(=O)c2cnn3cccnc23)c(-c2cc(S(=O)(=O)c3ccn(C)c(=O)c3)ccc2OC(F)F)n1 [Example 44, N-[3-[2-(difluoromethoxy)-5-[(1-methyl-2-oxo-4-pyridyl)sulfonyl]phenyl]-1-methyl-pyrazol-4-yl]pyrazolo[1,5-a]pyrimidine-3-carboxamide]",29,–
0.22,83.1,–,"CN(C)S(=O)(=O)c1ccc(OC(F)F)c(-c2nn(C)cc2NC(=O)c2cnn3cccnc23)c1 [Example 30, N-[3-[2-(difluoromethoxy)-5-(dimethylsulfamoyl)phenyl]-1-methyl-pyrazol-4-yl]pyrazolo[1,5-a]pyrimidine-3-carboxamide]",11,–
0.3,86.2,86.2,"Cn1cc(S(=O)(=O)c2ccc(OC(F)F)c(-c3nn(C)cc3NC(=O)c3cnn4cccnc34)c2)cn1 [Example 35, N-[3-[2-(difluoromethoxy)-5-(1-methylpyrazol-4-yl)sulfonyl-phenyl]-1-methyl-pyrazol-4-yl]pyrazolo[1,5-a]pyrimidine-3-carboxamide]",24,–
0.63,81.8,–,"CN(CCO)S(=O)(=O)c1ccc(OC(F)F)c(-c2nn(C)cc2NC(=O)c2cnn3cccnc23)c1 [Example 73, N-(3-(2-(difluoromethoxy)-5-(N-(2-hydroxyethyl)-N-methylsulfamoyl)phenyl)-1-methyl-1H-pyrazol-4-yl)pyrazolo[1,5-a]pyrimidine-3-carboxamide]",53,–
0.21,95.6,–,"Cn1cc(NC(=O)c2cnn3cccnc23)c(-c2cc(S(=O)(=O)c3ccccc3)ccc2OC(F)F)n1 [Example 40, N-[3-[5-(benzenesulfonyl)-2-(difluoromethoxy)phenyl]-1-methyl-pyrazol-4-yl]pyrazolo[1,5-a]pyrimidine-3-carboxamide]",24,–

# Second part, the compound before the results:
Compound,Ki [1] [nM],Mouse LTB % [3] [%],"Lung tissue binding, % [3] [%]","IC50 ([2]; Homo sapiens, BEAS-2B) [nM]",IC50 [2] [nM]
"COc1cccc(S(=O)(=O)c2ccc(OC(F)F)c(-c3nn(C)cc3NC(=O)c3cnn4cccnc34)c2)c1 [Example 12, N-[3-[2-(difluoromethoxy)-5-(3-methoxyphenyl)sulfonyl-phenyl]-1-methyl-pyrazol-4-yl]pyrazolo[1,5-a]pyrimidine-3-carboxamide]",0.24,97.1,–,18,–
"Cn1cc(NC(=O)c2cnn3cccnc23)c(-c2cc(S(C)(=O)=O)ccc2OC(F)F)n1 [Example 17, N-[3-[2-(difluoromethoxy)-5-methylsulfonyl-phenyl]-1-methyl-pyrazol-4-yl]pyrazolo[1,5-a]pyrimidine-3-carboxamide]",0.22,85.8,–,14,–
"CN(C)CCS(=O)(=O)c1ccc(OC(F)F)c(-c2nn(C)cc2NC(=O)c2cnn3cccnc23)c1 [Example 7, N-[3-[2-(difluoromethoxy)-5-[2-(dimethylamino)ethylsulfonyl]phenyl]-1-methyl-pyrazol-4-yl]pyrazolo[1,5-a]pyrimidine-3-carboxamide]",0.88,78.8,–,32,–
"Cn1cc(NC(=O)c2cnn3cccnc23)c(-c2cc(S(=O)(=O)CCO)ccc2OC(F)F)n1 [Example 5, N-[3-[2-(difluoromethoxy)-5-(2-hydroxyethylsulfonyl)phenyl]-1-methyl-pyrazol-4-yl]pyrazolo[1,5-a]pyrimidine-3-carboxamide]",0.43,80.1,–,35,–
"C[C@@H](O)CS(=O)(=O)c1ccc(OC(F)F)c(-c2nn(C)cc2NC(=O)c2cnn3cccnc23)c1 (stereo in doubt) [Example 25, N-[3-[2-(difluoromethoxy)-5-[rac-(2R)-2-hydroxypropyl]sulfonyl-phenyl]-1-methyl-pyrazol-4-yl]pyrazolo[1,5-a]pyrimidine-3-carboxamide]",0.48,85,–,20,–
"CC(CO)S(=O)(=O)c1ccc(OC(F)F)c(-c2nn(C)cc2NC(=O)c2cnn3cccnc23)c1 (single isomer, unassigned) [Example 24, N-[3-[2-(difluoromethoxy)-5-(2-hydroxy-1-methyl-ethyl)sulfonyl-phenyl]-1-methyl-pyrazol-4-yl]pyrazolo[1,5-a]pyrimidine-3-carboxamide]",0.46,81.7,–,–,30
"COCCS(=O)(=O)c1ccc(OC(F)F)c(-c2nn(C)cc2NC(=O)c2cnn3cccnc23)c1 [Example 14, N-[3-[2-(difluoromethoxy)-5-(2-methoxyethylsulfonyl)phenyl]-1-methyl-pyrazol-4-yl]pyrazolo[1,5-a]pyrimidine-3-carboxamide]",0.49,80.1,–,23,–
"Cn1cc(NC(=O)c2cnn3cccnc23)c(-c2cc(S(=O)(=O)c3ccncc3)ccc2OC(F)F)n1 [Example 16, N-[3-[2-(difluoromethoxy)-5-(4-pyridylsulfonyl)phenyl]-1-methyl-pyrazol-4-yl]pyrazolo[1,5-a]pyrimidine-3-carboxamide]",0.32,87.3,–,15,–
"Cn1cc(NC(=O)c2cnn3cccnc23)c(-c2cc(S(=O)(=O)C3CCC3)ccc2OC(F)F)n1 [Example 2, N-[3-[5-cyclobutylsulfonyl-2-(difluoromethoxy)phenyl]-1-methyl-pyrazol-4-yl]pyrazolo[1,5-a]pyrimidine-3-carboxamide]",0.5,88.1,–,15,–
